Results reported in PubChem BioAssay AID248 (DTP/NCI, 2004).
“And” between values parts separate entries of the source, which are not always exact repeats. Equal values may be shown once. Toxic doses and inconclusive results are not listed. Cut-off read from the data, not from the text of the source: active = T/C of 150% or more; inactive = T/C below 125%.

Test system: L1210 leukemia ip in BDF1 mice, survival T/C
Assay: NCI In Vivo Anticancer Drug Screen. Data for tumor model L1210 Leukemia (intraperitoneal) in B6D2F1 (BDF1) mice
Conditions: endpoint: mean survival time, higher = longer survival
Procedure, shortened: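 Antitumor effect is assessed in tumor-bearing animals. Survival in the compound arm is compared with a vehicle-dosed control arm and expressed as their quotient.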

[1] = dose: 100.0 mg/kg/injection, schedule: Q04DX002 (ip), vehicle: Klucel (hydroxypropylcellulose) (HPC)
[2] = dose: 200.0 mg/kg/injection, schedule: Q04DX002 (ip), vehicle: Klucel (hydroxypropylcellulose) (HPC)
[3] = dose: 400.0 mg/kg/injection, schedule: Q04DX002 (ip), vehicle: Klucel (hydroxypropylcellulose) (HPC)
[4] = dose: 100.0 mg/kg/injection, schedule: Q01DX009 (ip), vehicle: Klucel (hydroxypropylcellulose) (HPC)
[5] = dose: 100.0 mg/kg/injection, schedule: Q04DX003 (ip), vehicle: Klucel (hydroxypropylcellulose) (HPC)
[6] = dose: 200.0 mg/kg/injection, schedule: Q01DX009 (ip), vehicle: Klucel (hydroxypropylcellulose) (HPC)
[7] = dose: 200.0 mg/kg/injection, schedule: Q04DX003 (ip), vehicle: Klucel (hydroxypropylcellulose) (HPC)
[8] = dose: 400.0 mg/kg/injection, schedule: Q01DX009 (ip), vehicle: Klucel (hydroxypropylcellulose) (HPC)
[9] = dose: 100.0 mg/kg/injection, schedule: Q01DX001 (ip), vehicle: saline
[10] = dose: 200.0 mg/kg/injection, schedule: Q01DX001 (ip), vehicle: saline
[11] = dose: 400.0 mg/kg/injection, schedule: Q01DX001 (ip), vehicle: saline

Measured: T/C

CC(=O)OCC(O)C(O)C(O)C(O)C=O (stereo not given) (tested in a mixture with another compound)
inactive: [1] 92 % of control | [2] 103 % of control | [3] 95 % of control

CCCCCCCC(=O)Nc1ccc(F)cc1
inactive: dose: 100.0 mg/kg/injection, schedule: Q04DX003 (ip), vehicle: acetone 95 % of control | dose: 200.0 mg/kg/injection, schedule: Q04DX003 (ip), vehicle: acetone 95 % of control | dose: 400.0 mg/kg/injection, schedule: Q04DX003 (ip), vehicle: acetone 90 % of control

CCCN(CCC)N=Nc1c(C(=O)OC)n[nH]c1C
inactive: dose: 50.0 mg/kg/injection, schedule: Q04DX003 (ip), vehicle: saline with Tween-80 103 % of control | dose: 100.0 mg/kg/injection, schedule: Q04DX003 (ip), vehicle: saline with Tween-80 104 % of control and 109 % of control | dose: 175.0 mg/kg/injection, schedule: Q01DX009 (ip), vehicle: saline 124 % of control | dose: 200.0 mg/kg/injection, schedule: Q04DX003 (ip), vehicle: saline with Tween-80 104 % of control and 109 % of control | dose: 400.0 mg/kg/injection, schedule: Q01DX009 (ip), vehicle: saline 96 % of control | dose: 400.0 mg/kg/injection, schedule: Q04DX003 (ip), vehicle: saline with Tween-80 102 % of control

COc1ccc(OC)c(NC(=O)Nc2ccc(I)cc2)c1
inactive: [1] 96 % of control | [2] 96 % of control | [3] 107 % of control

CCC(=O)OCc1ccc(Cl)cc1
inactive: [4] 97 % of control | [5] 101 % of control | [6] 95 % of control | [7] 96 % of control | [8] 94 % of control | dose: 400.0 mg/kg/injection, schedule: Q04DX003 (ip), vehicle: Klucel (hydroxypropylcellulose) (HPC) 95 % of control

CN(C)C(=O)SSC(=S)N(C)C
inactive: dose: 4.0 mg/kg/injection, schedule: Q01DX015 (ip), vehicle: carboxymethylcellulose (CMC) 93 % of control | dose: 8.0 mg/kg/injection, schedule: Q01DX015 (ip), vehicle: carboxymethylcellulose (CMC) 92 % of control | dose: 16.0 mg/kg/injection, schedule: Q01DX015 (ip), vehicle: carboxymethylcellulose (CMC) 106 % of control | dose: 32.0 mg/kg/injection, schedule: Q01DX015 (ip), vehicle: carboxymethylcellulose (CMC) 97 % of control and 98 % of control | dose: 64.0 mg/kg/injection, schedule: Q01DX015 (ip), vehicle: carboxymethylcellulose (CMC) 98 % of control | dose: 128.0 mg/kg/injection, schedule: Q01DX015 (ip), vehicle: carboxymethylcellulose (CMC) 96 % of control

COCCOCCOC(=O)C(CO)(CC(CO)(C(C)=O)C(=O)OCCOCCOC)C(C)=O (stereo not given)
inactive: dose: 222.0 mg/kg/injection, schedule: Q01DX Z (ip), vehicle: saline 92 % of control | dose: 333.0 mg/kg/injection, schedule: Q01DX Z (ip), vehicle: saline 102 % of control | dose: 500.0 mg/kg/injection, schedule: Q01DX Z (ip), vehicle: saline 107 % of control

O=[N+]([O-])c1ccc(P(=O)(Nc2ccc(Cl)cc2)Nc2ccc(Cl)cc2)cc1
inactive: dose: 75.0 mg/kg/injection, schedule: Q01DX001 (ip), vehicle: saline 86 % of control | dose: 150.0 mg/kg/injection, schedule: Q01DX001 (ip), vehicle: saline 86 % of control | dose: 300.0 mg/kg/injection, schedule: Q01DX001 (ip), vehicle: saline 91 % of control

O=[N+]([O-])c1cc(C(F)(F)F)ccc1Cl
inactive: dose: 100.0 mg/kg/injection, schedule: Q01DX009 (ip), vehicle: saline 102 % of control | dose: 200.0 mg/kg/injection, schedule: Q01DX009 (ip), vehicle: saline 97 % of control

Cc1ccc(C(C)C)c(OC(=O)NCCCCCCNC(=O)Oc2cc(C)ccc2C(C)C)c1
inactive: [4] 93 % of control | [6] 94 % of control | [8] 98 % of control

Nc1ncnc2c1ncn2C(/C=N/Nc1ccccc1)OC(/C=N\Nc1ccccc1)CO (stereo not given)
inactive: dose: 100.0 mg/kg/injection, schedule: Q01DX001 (ip), vehicle: other 106 % of control | dose: 200.0 mg/kg/injection, schedule: Q01DX001 (ip), vehicle: other 108 % of control

Cc1cc(Cl)ccc1OCCCC(=O)O
inactive: dose: 50.0 mg/kg/injection, schedule: Q01DX001 (ip), vehicle: saline 102 % of control | [9] 98 % of control | [10] 98 % of control | [11] 104 % of control

O=C1NN=C(c2ccccc2)C1Cc1ccccc1 (stereo not given)
inactive: [9] 94 % of control | [10] 94 % of control | [11] 105 % of control

Cc1cccc2nc3nc(Cl)c(Cl)nc3n12
inactive: dose: 75.0 mg/kg/injection, schedule: Q01DX001 (ip), vehicle: acetone 98 % of control | dose: 150.0 mg/kg/injection, schedule: Q01DX001 (ip), vehicle: acetone 101 % of control | dose: 300.0 mg/kg/injection, schedule: Q01DX001 (ip), vehicle: acetone 92 % of control

O=[N+]([O-])c1ccc2c(c1)CCCC2
inactive: dose: 100.0 mg/kg/injection, schedule: Q01DX009 (ip), vehicle: other 98 % of control | dose: 100.0 mg/kg/injection, schedule: Q04DX003 (ip), vehicle: other 105 % of control | dose: 200.0 mg/kg/injection, schedule: Q01DX009 (ip), vehicle: other 104 % of control | dose: 200.0 mg/kg/injection, schedule: Q04DX003 (ip), vehicle: other 96 % of control | dose: 400.0 mg/kg/injection, schedule: Q01DX009 (ip), vehicle: other 116 % of control | dose: 400.0 mg/kg/injection, schedule: Q04DX003 (ip), vehicle: other 92 % of control

CCOC(=O)Nc1cc(NC(c2ccccc2)c2ccccc2)c([N+](=O)[O-])c(NC(=O)OCC)n1
inactive: dose: 100.0 mg/kg/injection, schedule: Q01DX001 (ip), vehicle: carboxymethylcellulose (CMC) 97 % of control | dose: 200.0 mg/kg/injection, schedule: Q01DX001 (ip), vehicle: carboxymethylcellulose (CMC) 92 % of control | dose: 400.0 mg/kg/injection, schedule: Q01DX001 (ip), vehicle: carboxymethylcellulose (CMC) 92 % of control

Cc1cc(Cl)c(Cl)cc1NC(=O)Nc1cccc(C(F)(F)F)c1
inactive: dose: 100.0 mg/kg/injection, schedule: Q01DX009 (ip), vehicle: carboxymethylcellulose (CMC) 93 % of control | dose: 200.0 mg/kg/injection, schedule: Q01DX009 (ip), vehicle: carboxymethylcellulose (CMC) 91 % of control | dose: 400.0 mg/kg/injection, schedule: Q01DX009 (ip), vehicle: carboxymethylcellulose (CMC) 102 % of control

OC(c1ccccc1)(c1ccccc1)c1ccccc1Cl
inactive: dose: 100.0 mg/kg/injection, schedule: Q04DX003 (ip), vehicle: saline 94 % of control | dose: 200.0 mg/kg/injection, schedule: Q04DX003 (ip), vehicle: saline 91 % of control | dose: 400.0 mg/kg/injection, schedule: Q04DX003 (ip), vehicle: saline 91 % of control

O/N=C/c1ccc(Cl)cc1Cl
inactive: dose: 50.0 mg/kg/injection, schedule: Q04DX003 (ip), vehicle: Klucel (hydroxypropylcellulose) (HPC) 97 % of control | dose: 100.0 mg/kg/injection, schedule: Q01DX001 (ip), vehicle: Klucel (hydroxypropylcellulose) (HPC) 94 % of control | [5] 95 % of control | dose: 200.0 mg/kg/injection, schedule: Q01DX001 (ip), vehicle: Klucel (hydroxypropylcellulose) (HPC) 97 % of control | [7] 97 % of control | dose: 400.0 mg/kg/injection, schedule: Q01DX001 (ip), vehicle: Klucel (hydroxypropylcellulose) (HPC) 102 % of control

CCCCCCCCCCOC(=S)S
inactive: dose: 50.0 mg/kg/injection, schedule: Q04DX002 (sc), vehicle: olive oil, sesame oil, peanut oil 100 % of control | dose: 100.0 mg/kg/injection, schedule: Q04DX002 (sc), vehicle: olive oil, sesame oil, peanut oil 116 % of control | dose: 200.0 mg/kg/injection, schedule: Q04DX002 (sc), vehicle: olive oil, sesame oil, peanut oil 106 % of control

CCCCCCCCCCNCCCCNCCCCCCCCCC
inactive: dose: 1.56 mg/kg/injection, schedule: Q01DX009 (ip), vehicle: Klucel (hydroxypropylcellulose) (HPC) 92 % of control | dose: 3.12 mg/kg/injection, schedule: Q01DX009 (ip), vehicle: Klucel (hydroxypropylcellulose) (HPC) 87 % of control | dose: 6.25 mg/kg/injection, schedule: Q01DX009 (ip), vehicle: Klucel (hydroxypropylcellulose) (HPC) 92 % of control and 93 % of control

O=S(=O)(Nc1ccc(NS(=O)(=O)c2ccccc2)c2ccccc12)c1ccccc1
inactive: dose: 100.0 mg/kg/injection, schedule: Q01DX009 (ip), vehicle: saline with Tween-80 87 % of control | dose: 200.0 mg/kg/injection, schedule: Q01DX009 (ip), vehicle: saline with Tween-80 92 % of control | dose: 400.0 mg/kg/injection, schedule: Q01DX009 (ip), vehicle: saline with Tween-80 92 % of control
